# According to patent US10004701B2, “Methods and compositions for treating infection” (UNIVERSITY OF ROCHESTER, priority 2012, dated 2018):
# Where a name gives a salt, the structure may show the parent alone. Read-outs that look alike come from different tables or passages of the source.
# Assays:
# Test in all cases: AK assay 384-well format, Prestwick library screening
# E. cloacae = assay type: cell-based, Enterobacter cloacae; settings: 50 μM final drug concentration; for fold induction at 50 µM: Enterobacter cloacae, 3 h
# P. aeruginosa = assay type: cell-based, Pseudomonas aeruginosa; settings: 50 μM final drug concentration; for fold induction at 50 µM: Pseudomonas aeruginosa, 3 h
# [1] = test system: A. baumannii strain 98-37-09; assay type: cell-based, Acinetobacter baumannii; settings: 50 μM final drug concentration; for fold induction at 50 µM: Acinetobacter baumannii, 983709, 3 h
# K. pneumoniae = assay type: cell-based, Klebsiella pneumoniae; settings: 50 μM final drug concentration; for fold induction at 50 µM: Klebsiella pneumoniae, 3 h
# E. faecium = assay type: cell-based, Enterococcus faecium; settings: 50 μM final drug concentration; for fold induction at 50 µM: Enterococcus faecium, 3 h
# E. coli = assay type: cell-based, Escherichia coli; settings: 50 μM final drug concentration; for fold induction at 50 µM: Escherichia coli, 3 h
# [2] = test system: S. aureus strain USA300-0114; assay type: cell-based, Staphylococcus aureus; settings: 50 μM final drug concentration; for fold induction at 50 µM: Staphylococcus aureus, USA300, 3 h
# [3] = cutoff for positive-scoring molecules 3-fold increase, read-out: AK-based Prestwick Library Screening Results, E. cloacae (fold increase in extracellular AK activity)
# [4] = cutoff for positive-scoring molecules 3-fold increase, read-out: AK-based Prestwick Library Screening Results, P. aeruginosa (fold increase in extracellular AK activity)
# [5] = cutoff for positive-scoring molecules 3-fold increase, read-out: AK-based Prestwick Library Screening Results, A. baumannii (fold increase in extracellular AK activity)
# [6] = cutoff for positive-scoring molecules 3-fold increase, read-out: AK-based Prestwick Library Screening Results, K. pneumoniae (fold increase in extracellular AK activity)
# [7] = cutoff for positive-scoring molecules 3-fold increase, read-out: AK-based Prestwick Library Screening Results, E. faecium (fold increase in extracellular AK activity)
# [8] = cutoff for positive-scoring molecules 3-fold increase, read-out: AK-based Prestwick Library Screening Results, E. coli (fold increase in extracellular AK activity)
# [9] = cutoff for positive-scoring molecules 3-fold increase, read-out: AK-based Prestwick Library Screening Results, S. aureus (fold increase in extracellular AK activity)
# [10] = planktonic, cutoff for positive-scoring molecules 3-fold increase
# [11] = planktonic E. cloacae, cutoff for positive-scoring molecules 3-fold increase, read-out: AK-based Prestwick Library Screening Results, E. cloacae (increase in extracellular AK activity)
# [12] = planktonic P. aeruginosa, cutoff for positive-scoring molecules 3-fold increase, read-out: AK-based Prestwick Library Screening Results, P. aeruginosa (increase in extracellular AK activity)
# [13] = planktonic A. baumannii, cutoff for positive-scoring molecules 3-fold increase, read-out: AK-based Prestwick Library Screening Results, A. baumannii (increase in extracellular AK activity)
# [14] = planktonic K. pneumoniae, cutoff for positive-scoring molecules 3-fold increase, read-out: AK-based Prestwick Library Screening Results, K. pneumoniae (increase in extracellular AK activity)
# [15] = planktonic E. faecium, cutoff for positive-scoring molecules 3-fold increase, read-out: AK-based Prestwick Library Screening Results, E. faecium (increase in extracellular AK activity)
# [16] = planktonic E. coli, cutoff for positive-scoring molecules 3-fold increase, read-out: AK-based Prestwick Library Screening Results, E. coli (increase in extracellular AK activity)
# [17] = planktonic S. aureus, cutoff for positive-scoring molecules 3-fold increase, read-out: AK-based Prestwick Library Screening Results, S. aureus (increase in extracellular AK activity)
# [18] = planktonic, cutoff for positive 3-fold increase
compound,measurement,setting,value
CO/N=C(\C(=O)N[C@@H]1C(=O)N2C(C(=O)O)=C(C[N+]3(C)CCCC3)CS[C@H]12)c1csc(N)n1 [Cefepime hydrochloride],fold induction at 50 µM,"E. cloacae; planktonic E. cloacae, positive cutoff 3-fold increase, read-out: AK-based Prestwick library screening result, E. cloacae (fold increase in extracellular AK activity)",1.9
same,fold induction at 50 µM,"P. aeruginosa; planktonic P. aeruginosa, positive cutoff 3-fold increase, read-out: AK-based Prestwick library screening result, P. aeruginosa (fold increase in extracellular AK activity)",15.6
same,fold induction at 50 µM,"[1]; planktonic A. baumannii, positive cutoff 3-fold increase, read-out: AK-based Prestwick library screening result, A. baumannii (fold increase in extracellular AK activity)",3.4
same,fold induction at 50 µM,"K. pneumoniae; planktonic K. pneumoniae, positive cutoff 3-fold increase, read-out: AK-based Prestwick library screening result, K. pneumoniae (fold increase in extracellular AK activity)",4.9
same,fold induction at 50 µM,"E. faecium; planktonic E. faecium, positive cutoff 3-fold increase, read-out: AK-based Prestwick library screening result, E. faecium (fold increase in extracellular AK activity)",1
same,fold induction at 50 µM,"E. coli; planktonic E. coli, positive cutoff 3-fold increase, read-out: AK-based Prestwick library screening result, E. coli (fold increase in extracellular AK activity)",19.3
same,fold induction at 50 µM,"[2]; planktonic S. aureus, positive cutoff 3-fold increase, read-out: AK-based Prestwick library screening result, S. aureus (fold increase in extracellular AK activity)",3.1
CCOc1ccc2ccccc2c1C(=O)N[C@@H]1C(=O)N2[C@@H]1SC(C)(C)[C@@H]2C(=O)O [Nafcillin sodium salt monohydrate],fold induction at 50 µM,E. cloacae; [3],1.4
same,fold induction at 50 µM,P. aeruginosa; [4],1.3
same,fold induction at 50 µM,[1]; [5],1.5
same,fold induction at 50 µM,K. pneumoniae; [6],1
same,fold induction at 50 µM,E. faecium; [7],1
same,fold induction at 50 µM,E. coli; [8],1.2
same,fold induction at 50 µM,[2]; [9],6.5
CC[C@H]1OC(=O)[C@H](C)[C@@H](O[C@H]2C[C@@](C)(OC)[C@@H](O)[C@H](C)O2)[C@H](C)[C@@H](O[C@@H]2O[C@H](C)C[C@H](N(C)C)[C@H]2O)[C@](C)(O)C[C@@H](C)/C(=N\OCOCCOC)[C@H](C)[C@@H](O)[C@]1(C)O [Roxithromycin],fold induction at 50 µM,E. cloacae; [3],1.5
same,fold induction at 50 µM,P. aeruginosa; [4],0.9
same,fold induction at 50 µM,[1]; [5],1
same,fold induction at 50 µM,K. pneumoniae; [6],1.1
same,fold induction at 50 µM,E. faecium; [7],1.4
same,fold induction at 50 µM,E. coli; [8],0.9
same,fold induction at 50 µM,[2]; [9],2.8
CC(C)NC[C@@H](O)c1ccc(O)c(O)c1.O=C(O)C(O)C(O)C(=O)O [(+)-Isoproterenol (+)-bitartrate salt],"AK-based Prestwick Library Screening Results, E. cloacae (fold increase in extracellular AK activity)",E. cloacae; [10],1.4
same,"AK-based Prestwick Library Screening Results, P. aeruginosa (fold increase in extracellular AK activity)",P. aeruginosa; [10],0.8
same,"AK-based Prestwick Library Screening Results, A. baumannii (fold increase in extracellular AK activity)",[1]; [10],0.8
same,"AK-based Prestwick Library Screening Results, K. pneumoniae (fold increase in extracellular AK activity)",K. pneumoniae; [10],1.0
same,"AK-based Prestwick Library Screening Results, E. faecium (fold increase in extracellular AK activity)",E. faecium; [10],0.9
same,"AK-based Prestwick Library Screening Results, E. coli (fold increase in extracellular AK activity)",E. coli; [10],0.9
same,"AK-based Prestwick Library Screening Results, S. aureus (fold increase in extracellular AK activity)",[2]; [10],0.8
CC[C@H]1CN2CC[C@H]1C[C@H]2[C@H](O)c1ccnc2ccc(OC)cc12 [Hydroquinine hydrobromide hydrate],fold induction at 50 µM,"E. cloacae; planktonic, cutoff for positive 3-fold increase, read-out: AK-based Prestwick Library Screening Results, E. cloacae (fold increase in extracellular AK activity)",1.6
same,fold induction at 50 µM,"P. aeruginosa; planktonic, cutoff for positive 3-fold increase, read-out: AK-based Prestwick Library Screening Results, P. aeruginosa (fold increase in extracellular AK activity)",1.2
same,fold induction at 50 µM,"[1]; planktonic, cutoff for positive 3-fold increase, read-out: AK-based Prestwick Library Screening Results, A. baumannii (fold increase in extracellular AK activity)",1.2
same,fold induction at 50 µM,"K. pneumoniae; planktonic, cutoff for positive 3-fold increase, read-out: AK-based Prestwick Library Screening Results, K. pneumoniae (fold increase in extracellular AK activity)",1.3
same,fold induction at 50 µM,"E. faecium; planktonic, cutoff for positive 3-fold increase, read-out: AK-based Prestwick Library Screening Results, E. faecium (fold increase in extracellular AK activity)",1.1
same,fold induction at 50 µM,"E. coli; planktonic, cutoff for positive 3-fold increase, read-out: AK-based Prestwick Library Screening Results, E. coli (fold increase in extracellular AK activity)",1.2
same,fold induction at 50 µM,"[2]; planktonic, cutoff for positive 3-fold increase, read-out: AK-based Prestwick Library Screening Results, S. aureus (fold increase in extracellular AK activity)",1
CCOC(=O)OC(C)OC(=O)[C@@H]1N2C(=O)[C@@H](NC(=O)[C@H](N)c3ccccc3)[C@H]2SC1(C)C (stereo partly shown) [Bacampicillin hydrochloride],fold induction at 50 µM,E. cloacae; [11],0.6
same,fold induction at 50 µM,P. aeruginosa; [12],0.6
same,fold induction at 50 µM,[1]; [13],1.3
same,fold induction at 50 µM,K. pneumoniae; [14],0.6
same,fold induction at 50 µM,E. faecium; [15],1.1
same,fold induction at 50 µM,E. coli; [16],11.9
same,fold induction at 50 µM,[2]; [17],0.5
CC(N)CCCC(C)(C)O (stereo not shown) [Heptaminol hydrochloride],fold induction at 50 µM,"E. cloacae; 384-well format, cutoff for positive-scoring molecules 3-fold increase, read-out: AK-based Prestwick Library Screening Results, E. cloacae (increase in extracellular AK activity)",0.7
same,fold induction at 50 µM,"P. aeruginosa; 384-well format, cutoff for positive-scoring molecules 3-fold increase, read-out: AK-based Prestwick Library Screening Results, P. aeruginosa (increase in extracellular AK activity)",0.5
same,fold induction at 50 µM,"[1]; 384-well format, cutoff for positive-scoring molecules 3-fold increase, read-out: AK-based Prestwick Library Screening Results, A. baumannii (increase in extracellular AK activity)",0.6
same,fold induction at 50 µM,"K. pneumoniae; 384-well format, cutoff for positive-scoring molecules 3-fold increase, read-out: AK-based Prestwick Library Screening Results, K. pneumoniae (increase in extracellular AK activity)",0.5
same,fold induction at 50 µM,"E. faecium; 384-well format, cutoff for positive-scoring molecules 3-fold increase, read-out: AK-based Prestwick Library Screening Results, E. faecium (increase in extracellular AK activity)",0.9
same,fold induction at 50 µM,"E. coli; 384-well format, cutoff for positive-scoring molecules 3-fold increase, read-out: AK-based Prestwick Library Screening Results, E. coli (increase in extracellular AK activity)",0.8
same,fold induction at 50 µM,"[2]; 384-well format, cutoff for positive-scoring molecules 3-fold increase, read-out: AK-based Prestwick Library Screening Results, S. aureus (increase in extracellular AK activity)",0.7
CNCCCC1c2ccccc2C=Cc2ccccc21 [Protriptyline hydrochloride],fold induction at 50 µM,E. cloacae; [3],1.4
same,fold induction at 50 µM,P. aeruginosa; [4],1.2
same,fold induction at 50 µM,[1]; [5],1.1
same,fold induction at 50 µM,K. pneumoniae; [6],1.1
same,fold induction at 50 µM,E. faecium; [7],1
same,fold induction at 50 µM,E. coli; [8],1.2
same,fold induction at 50 µM,[2]; [9],2.8
O=C(CCCN1CCC(O)(c2ccc(Br)cc2)CC1)c1ccc(F)cc1 [Bromperidol],fold induction at 50 µM,E. cloacae; [11],1.1
same,fold induction at 50 µM,P. aeruginosa; [12],1.1
same,fold induction at 50 µM,[1]; [13],1
same,fold induction at 50 µM,K. pneumoniae; [14],0.7
same,fold induction at 50 µM,E. faecium; [15],0.9
same,fold induction at 50 µM,E. coli; [16],0.8
same,fold induction at 50 µM,[2]; [17],0.7
(S)-(−)-Atenolol,"AK-based Prestwick Library Screening Results, E. cloacae (fold increase in extracellular AK activity)",E. cloacae; [18],1.7
same,"AK-based Prestwick Library Screening Results, P. aeruginosa (fold increase in extracellular AK activity)",P. aeruginosa; [18],1.1
same,"AK-based Prestwick Library Screening Results, A. baumannii (fold increase in extracellular AK activity)",[1]; [18],1.1
same,"AK-based Prestwick Library Screening Results, K. pneumoniae (fold increase in extracellular AK activity)",K. pneumoniae; [18],0.9
same,"AK-based Prestwick Library Screening Results, E. faecium (fold increase in extracellular AK activity)",E. faecium; [18],1.0
same,"AK-based Prestwick Library Screening Results, E. coli (fold increase in extracellular AK activity)",E. coli; [18],1.2
same,"AK-based Prestwick Library Screening Results, S. aureus (fold increase in extracellular AK activity)",[2]; [18],1.2
